Laboratory results as given in BindingDB's records for doi:10.1021/jm000455z (Kissei Pharmaceutical, 2001).

experiment: Agonistic activity towards beta-3 adrenoceptor. Mean concentration required to produce 50% relaxation of detrusor before the addition in the ferret detrusor

| Compound | EC50 [µM] |
| --- | --- |
| C[C@H](NCCc1ccc(NCC(=O)O)c(Cl)c1)[C@H](O)c1ccc(O)cc1 | 0.000933 |
| C[C@H](NCCc1cc(Cl)c(NCC(=O)O)cc1Cl)[C@H](O)c1ccc(O)cc1 | 0.0617 |
| C[C@H](NCCc1ccc(NCC(=O)O)cc1)[C@H](O)c1ccc(O)cc1 | 0.024 |
| C[C@H](NCCc1ccc(NC(C)(C)C(=O)O)cc1Cl)[C@H](O)c1ccc(O)cc1 | 0.00562 |
| C[C@H](NCCc1cc(Br)c(NCC(=O)O)c(Br)c1)[C@H](O)c1ccc(O)cc1 | 0.0813 |
| C[C@H](NCCc1cc(Cl)c(N(C)CC(=O)O)c(Cl)c1)[C@H](O)c1ccc(O)cc1 | 0.158 |
| C[C@H](NCCc1ccc(NCC(=O)O)c(Br)c1)[C@H](O)c1ccc(O)cc1 | 0.575 |
| C[C@H](NCCc1ccc(NCC(=O)O)c(Cl)c1Cl)[C@H](O)c1ccc(O)cc1 | 0.457 |
| C[C@H](NCCc1ccc(NCC(=O)O)cc1Cl)[C@H](O)c1ccc(O)cc1 | 0.00724 |
| C[C@H](NCCc1ccc(N(C)CC(=O)O)cc1)[C@H](O)c1ccc(O)cc1 | 0.0525 |
| C[C@H](NCCc1ccc(NCC(=O)O)c(I)c1)[C@H](O)c1ccc(O)cc1 | 0.813 |
| C[C@H](NCCc1ccc(N(C)CC(=O)O)c(Cl)c1)[C@H](O)c1ccc(O)cc1 | 0.011 |
